Biological target: T1, Pdr5p (Saccharomyces cerevisiae, UniProt P33302)
T1 construct: gene PDR5; Pdr5p-enriched plasma membranes from strain AD124567
Assay: ATPase activity (Pi release) in Pdr5p-enriched plasma membranes, Pdr5p-null membranes subtracted
Format: biochemical

T1 sequence (P33302 whole entry): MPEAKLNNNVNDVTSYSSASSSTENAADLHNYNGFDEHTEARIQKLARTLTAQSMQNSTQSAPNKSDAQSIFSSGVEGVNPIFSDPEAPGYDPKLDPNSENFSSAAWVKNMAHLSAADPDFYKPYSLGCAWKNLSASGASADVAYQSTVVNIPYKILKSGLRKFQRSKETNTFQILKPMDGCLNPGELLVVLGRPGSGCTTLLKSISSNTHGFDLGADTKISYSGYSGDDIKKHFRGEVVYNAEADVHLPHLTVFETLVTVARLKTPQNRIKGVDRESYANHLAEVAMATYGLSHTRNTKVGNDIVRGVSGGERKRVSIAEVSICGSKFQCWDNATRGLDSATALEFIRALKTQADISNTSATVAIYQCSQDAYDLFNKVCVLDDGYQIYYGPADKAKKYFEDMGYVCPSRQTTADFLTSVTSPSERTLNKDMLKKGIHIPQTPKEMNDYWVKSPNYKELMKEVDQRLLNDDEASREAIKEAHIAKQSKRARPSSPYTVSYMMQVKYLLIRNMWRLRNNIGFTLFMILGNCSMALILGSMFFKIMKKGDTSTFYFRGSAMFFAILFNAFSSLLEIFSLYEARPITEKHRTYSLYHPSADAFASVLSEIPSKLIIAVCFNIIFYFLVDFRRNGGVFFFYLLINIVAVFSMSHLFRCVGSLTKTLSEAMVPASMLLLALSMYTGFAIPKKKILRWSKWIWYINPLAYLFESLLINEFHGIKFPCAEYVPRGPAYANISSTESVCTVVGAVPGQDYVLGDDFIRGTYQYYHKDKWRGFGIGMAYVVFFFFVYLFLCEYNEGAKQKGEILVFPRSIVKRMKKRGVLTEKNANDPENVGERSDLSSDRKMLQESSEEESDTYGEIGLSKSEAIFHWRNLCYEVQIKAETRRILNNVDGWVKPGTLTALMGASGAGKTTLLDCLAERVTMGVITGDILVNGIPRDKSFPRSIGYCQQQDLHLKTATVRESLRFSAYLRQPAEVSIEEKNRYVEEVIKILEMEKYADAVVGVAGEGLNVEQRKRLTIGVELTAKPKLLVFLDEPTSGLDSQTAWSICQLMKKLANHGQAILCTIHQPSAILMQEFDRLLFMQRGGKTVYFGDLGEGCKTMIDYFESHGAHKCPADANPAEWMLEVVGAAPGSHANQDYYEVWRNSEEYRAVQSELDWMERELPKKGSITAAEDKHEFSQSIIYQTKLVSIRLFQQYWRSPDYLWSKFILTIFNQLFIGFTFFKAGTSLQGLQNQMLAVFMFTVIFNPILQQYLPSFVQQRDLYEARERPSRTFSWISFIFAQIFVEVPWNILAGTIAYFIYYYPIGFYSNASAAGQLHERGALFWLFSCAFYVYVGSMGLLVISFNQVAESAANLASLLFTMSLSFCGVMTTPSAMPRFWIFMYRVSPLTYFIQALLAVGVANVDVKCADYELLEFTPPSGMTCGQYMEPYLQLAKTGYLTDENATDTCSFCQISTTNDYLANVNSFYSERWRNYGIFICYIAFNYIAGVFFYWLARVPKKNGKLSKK

Structure (SMILES): CCCC[Te]CCCNC(=O)OC(C)(C)C [compound 1]
- IC50: 1140 ± 210 nM

Structure (SMILES): CCCC[Te]CCCNC(=O)c1ccccc1 [compound 2]
- IC50: 1450 ± 490 nM

Structure (SMILES): CCCC[Te]CCCCNC(=O)c1ccccc1 [compound 3]
- IC50: 1740 ± 910 nM

Structure (SMILES): CCCC[Te]CCCCCNC(=O)c1ccccc1 [compound 5]
- IC50: 1480 ± 320 nM
